Measured values: patent US20140200210A1, “PHARMACEUTICAL COMPOSITION FOR TREATING PREMATURE EJACULATION AND METHOD FOR TREATING PREMATURE EJACULATION” (CTC BIO, INC., priority 2011, published 2014)
Structures can show the parent of a compound that is named as a salt.

Tested on: male patients suffering from premature ejaculation
Assay: Phase 2b clinical study, effect evaluation: intravaginal ejaculation latency time (IELT)
Format: in vivo, human
Source text: Male patients suffering from premature ejaculation were subject to the following parallel clinical study (Phase 2b) (randomized, double-blind, placebo-controlled and fixed dose study) for evaluating tolerance and determining a proper therapeutic capacity.
• Subjects who passed screening entered a 4-week run-in period, and were randomized in 1:1:1 ratio of 2 groups with clomipramine and 1 group with placebo and subject to a double blind experiment. […] Each subject visited the hospital after taking the test drugs for 4 weeks by on-demand therapy.
Group 0 was administered with a tablet of 15 mg placebo and a tablet of 30 mg placebo, Group 1 was administered with a tablet of 15 mg clomipramine HCl and a tablet of 30 mg placebo, and Group 2 was administered with a tablet of 30 mg clomipramine HCl and a tablet of 15 mg placebo for 4 weeks on-demand at about 2 hours to 6 hours prior to sexual activity. The tablets were orally taken with a glass of water.
Primary effectiveness evaluation variables in this clinical study include an IELT fold change at visit 3 (measuring between 0 and 4 weeks) relative to baseline values (i.e., IELT fold change=Value of IELT measured at visit 3 (0 to 4 weeks)/Value of IELT measured at baseline) in each of Group 0 (with treatment of placebo), Group 1 (with treatment of 15 mg clomipramine HCl) and Group 2 (with treatment of 30 mg clomipramine HCl). […]
(1) After administering placebo and 15 mg of clomipramine, and placebo and 30 mg of clomipramine for the period of 4 weeks, a change (%) of IELT values between 0 to 4 weeks after administration, relative to before administration, was calculated by the equation [Change (%) of IELT Values=(Value of IELT measured at 0 to 4 weeks−Value of IELT measured at baseline)×100/Value of IELT measured at baseline].
(2) After administering placebo and 15 mg of clomipramine, and placebo and 30 mg of clomipramine for the period of 4 weeks, a mean change of IELT values between 0 to 4 weeks after administration was calculated. […]

For CN(C)CCCN1c2ccccc2CCc2ccc(Cl)cc21 [clomipramine, clomipramine hydrochloride], which minimum effective dose (case of ITT1) is on record?
Its minimum effective dose is 30 mg.

What about the minimum effective dose (cases of ITT2 and ITT3) of the same molecule?
The minimum effective dose was 15 mg.

What about the minimum effective dose (considering overall situations) of the same molecule?
The minimum effective dose was 15 mg.
